Values of other authors as cited in patent US20240226034A1, “Use of Terpenoids and Salicylates as Anesthetics and Analgesics” (THE REGENTS OF THE UNIVERSITY OF CALIFORNIA, priority 2021, published 2024).

Test system: rats
Settings: antagonism of spinal GABAA receptors in rats; cited from earlier work

FC(F)OC(Cl)C(F)(F)F (stereo not shown) [isoflurane]
increase of EC50 for immobilization: up to 40%
